This passage reports MIC80 and Time results from ChEMBL document CHEMBL5338795, “Novel Triazoles with Potent and Broad-Spectrum Antifungal Activity In Vitro and In Vivo” (J Med Chem, 2023).

What all share (assay type): functional
Assay [1] concerns Candida albicans. As to the kind of experiment: Antifungal activity against Candida albicans SC5314 assessed as reduction in fungal growth incubated for 24 hrs by CLSI based microdilution analysis.
For assay [2], the system named is Meyerozyma guilliermondii. The assay can be described thus: Antifungal activity against Meyerozyma guilliermondii ATCC 6260 assessed as reduction in fungal growth incubated for 24 hrs by CLSI based microdilution analysis.
In assay [3] the test system is Candida parapsilosis. As to the kind of experiment: Antifungal activity against Candida parapsilosis ATCC 22019 assessed as reduction in fungal growth incubated for 24 hrs by CLSI based microdilution analysis. To be noted: Lodderomyces parapsilosis.
In assay [4] the test system is Candida tropicalis. The assay can be described thus: Antifungal activity against Candida tropicalis ATCC 750 assessed as reduction in fungal growth incubated for 24 hrs by CLSI based microdilution analysis.
For assay [5], the system named is Nakaseomyces glabratus. As to the kind of experiment: Antifungal activity against Candida glabrata ATCC 15126 assessed as reduction in fungal growth incubated for 24 hrs by CLSI based microdilution analysis.
The test system of assay [6] is Cryptococcus neoformans. The assay can be described thus: Antifungal activity against Cryptococcus neoformans CGMCC3 1563 assessed as reduction in fungal growth incubated for 72 hrs by CLSI based microdilution analysis.
Assay [7] deals with Aspergillus fumigatus. As to the kind of experiment: Antifungal activity against Aspergillus fumigatus CGMCC3 7795 assessed as reduction in fungal growth incubated for 48 hrs by CLSI based microdilution analysis.
For assay [8], the system named is Candida albicans. The assay can be described thus: Antifungal activity against fluconazole-resistant Candida albicans 102 assessed as inhibition of fungal growth measured for 24 hrs by CLSI based microdilution analysis.
Assay [9] has as its system Candida albicans. The assay can be described thus: Antifungal activity against fluconazole-resistant Candida albicans 13 assessed as inhibition of fungal growth measured for 24 hrs by CLSI based microdilution analysis.
In assay [10] the test system is Candida albicans. The assay can be described thus: Antifungal activity against fluconazole-resistant Candida albicans 15 assessed as inhibition of fungal growth measured for 24 hrs by CLSI based microdilution analysis.
Assay [11] concerns Candida albicans. The assay can be described thus: Antifungal activity against fluconazole-resistant Candida albicans 901 assessed as inhibition of fungal growth measured for 24 hrs by CLSI based microdilution analysis.
Assay [12] has as its system Candida albicans. As to the kind of experiment: Antifungal activity against fluconazole-resistant Candida albicans 24D assessed as inhibition of fungal growth measured for 24 hrs by CLSI based microdilution analysis.
The subject of assay [13] is Candida albicans. The assay can be described thus: Antifungal activity against fluconazole-resistant Candida albicans 112869 assessed as inhibition of fungal growth measured for 24 hrs by CLSI based microdilution analysis.
Assay [14] has as its system Candida albicans. As to the kind of experiment: In-vivo antifungal activity against Candida albicans […] infected in ICR mouse model assessed as median survival time at 1 mg/kg, ip administered once daily pretreated for 24 hrs followed by infection and measured every 2 hrs for 5 days. To be noted: time 144 hrs.
Assay [15] has as its system Candida albicans. The assay can be described thus: In-vivo antifungal activity against multidrug-resistant Candida albicans 24D infected in ICR mouse model assessed as median survival time at 1 mg/kg, ip administered once daily pretreated for 24 hrs followed by infection and measured every 2 hrs for 5 days. To be noted: time 144 hrs.

≈ marks a conversion by molar mass, not a printed value.

For `C[C@@H](c1ncncc1F)[C@](O)(Cn1cncn1)c1ccc(F)cc1F` [VORICONAZOLE], the MIC80 stood at 0.062 µg/mL (≈ 0.177 µM) in assay [1]; 0.062 µg/mL (≈ 0.177 µM) in [2]; 0.062 µg/mL (≈ 0.177 µM) in assay [3]; 0.312 µg/mL (≈ 0.893 µM) in assay [4]; 0.312 µg/mL (≈ 0.893 µM) in assay [5]; 0.031 µg/mL (≈ 0.0887 µM) in assay [6]. In addition, the MIC80 in assay [7] was 0.312 µg/mL (≈ 0.893 µM); in assay [8] it was above 100 µg/mL; in assay [9], 25 µg/mL (≈ 71.6 µM); in assay [10], 0.625 µg/mL (≈ 1.79 µM); in [11], above 100 µg/mL; in assay [12], above 100 µg/mL. Moreover, in [13], the MIC80 was above 100 µg/mL. Also, the Time in [14] stood at 7 days; in assay [15] it was 9 days.

Regarding `OC(CN1CCN(CCCn2ccc3ccccc32)CC1)(Cn1cncn1)c1ccc(F)cc1F` (configuration not stated), the MIC80 in assay [1] worked out at 0.062 µg/mL (≈ 0.129 µM); in assay [2], 0.125 µg/mL (≈ 0.26 µM); in assay [3] it was 0.125 µg/mL (≈ 0.26 µM); in assay [4], 0.625 µg/mL (≈ 1.3 µM); in assay [5], 0.625 µg/mL (≈ 1.3 µM); in assay [6], 0.062 µg/mL (≈ 0.129 µM). Further, the MIC80 in [7] was determined as 10 µg/mL (≈ 20.8 µM); in [8], 0.062 µg/mL (≈ 0.129 µM); in assay [9] it was 0.062 µg/mL (≈ 0.129 µM); in assay [10], 2.5 µg/mL (≈ 5.2 µM); in assay [11] it was 5 µg/mL (≈ 10.4 µM); in [12] it was 0.125 µg/mL (≈ 0.26 µM). In addition, the MIC80 in [13] stood at 0.062 µg/mL (≈ 0.129 µM).

As for `O=[N+]([O-])c1ccc2c(ccn2CCCN2CCN(CC(O)(Cn3cncn3)c3ccc(F)cc3F)CC2)c1` (configuration not stated), the MIC80 was found to be 0.031 µg/mL (≈ 0.059 µM) in assay [1]; 0.125 µg/mL (≈ 0.238 µM) in assay [2]; 0.062 µg/mL (≈ 0.118 µM) in [3]; 0.312 µg/mL (≈ 0.594 µM) in assay [4]; 0.625 µg/mL (≈ 1.19 µM) in assay [5]; 0.031 µg/mL (≈ 0.059 µM) in assay [6]. Also, the MIC80 in [7] was 1.25 µg/mL (≈ 2.38 µM); in assay [8] it was 0.031 µg/mL (≈ 0.059 µM); in assay [9] it was 0.062 µg/mL (≈ 0.118 µM); in [10], 0.625 µg/mL (≈ 1.19 µM); in assay [11], 1.25 µg/mL (≈ 2.38 µM); in [12] it was 0.031 µg/mL (≈ 0.059 µM). The MIC80 in [13] worked out at 0.062 µg/mL (≈ 0.118 µM).

Turning to `OC(CN1CCN(CCCn2ccc3cc(Cl)ccc32)CC1)(Cn1cncn1)c1ccc(F)cc1F` (configuration not stated), the MIC80 in assay [1] came out at 0.031 µg/mL (≈ 0.0602 µM); in [2] it was 0.125 µg/mL (≈ 0.243 µM); in [3], 0.062 µg/mL (≈ 0.12 µM); in [4], 0.625 µg/mL (≈ 1.21 µM); in [5], 0.312 µg/mL (≈ 0.606 µM); in assay [6] it was 0.031 µg/mL (≈ 0.0602 µM). Also, the MIC80 in assay [7] worked out at 5 µg/mL (≈ 9.71 µM); in assay [8] it was 0.062 µg/mL (≈ 0.12 µM); in assay [9] it was 0.062 µg/mL (≈ 0.12 µM); in assay [10] it was 2.5 µg/mL (≈ 4.85 µM); in assay [11], 2.5 µg/mL (≈ 4.85 µM); in assay [12] it was 0.062 µg/mL (≈ 0.12 µM). The MIC80 in [13] came out at 0.062 µg/mL (≈ 0.12 µM).

Consider `OC(CN1CCN(CCn2ccc3cc(Cl)c(Cl)cc32)CC1)(Cn1cncn1)c1ccc(F)cc1F` (configuration not stated), for which the MIC80 turned out to be 0.031 µg/mL (≈ 0.0579 µM) in assay [1]; 0.125 µg/mL (≈ 0.233 µM) in [2]; 0.125 µg/mL (≈ 0.233 µM) in assay [3]; 0.312 µg/mL (≈ 0.583 µM) in assay [4]; 0.312 µg/mL (≈ 0.583 µM) in [5]; 0.062 µg/mL (≈ 0.116 µM) in assay [6]. Further, the MIC80 in assay [7] amounted to 5 µg/mL (≈ 9.34 µM); in assay [8] it was 0.062 µg/mL (≈ 0.116 µM); in assay [9], 0.062 µg/mL (≈ 0.116 µM); in [10], 0.625 µg/mL (≈ 1.17 µM); in assay [11], 2.5 µg/mL (≈ 4.67 µM); in assay [12], 0.062 µg/mL (≈ 0.116 µM). Also, the MIC80 in assay [13] turned out to be 0.25 µg/mL (≈ 0.467 µM).
